Assay results taken from patent US10098841B2, “Method of inducing a phase transition of a bilayer membrane vesicle” (Japan Science and Technology Agency, priority 2005, dated 2018).
Converted amounts (≈) assume the structure as drawn. “And” between values parts separate entries of the source, which are not always exact repeats. Equal values may be shown once.

Columns and labels:
[1] = SUV membrane fusion by fluorescence dilution method; conditions: CDMT 25 or 50 equivalents; SUV with and without fluorescent agent
Method: An SUV dispersion with a fluorescent agent and an SUV dispersion without a fluorescent agent, of the compositions shown in Table 5 were prepared according to the SUV preparation method described in Example 6.
First, 0.2 mL of the prepared SUV dispersion with a fluorescent agent and 1.8 mL of the SUV dispersion without a fluorescent agent were mixed at room temperature. Three samples were prepared for each SUV. To two of these samples 10.8 μL (25 equivalents) or 21.7 μL (50 equivalents) of CDMT (300 mM in methanol) was added respectively, and allowed to stand at room temperature. As a control experiment, 21.7 μL of methanol was added to the remaining sample, and also allowed to stand, and then the fluorescence was measured at a given time interval.
Unlike the mixing method of Example 7, in the case of the fluorescence dilution method of Example 8, the F value becomes smaller as fusion proceeds. […] It should be noted that in the graph of FIG. 5, it appears as if at initial state there is a difference between the control sample and the samples to which CDMT has been added.

[2] = Leaking of aqueous phase within SUV accompanying fusion (calcein); conditions: with fusion, CDMT 50 equivalents
Method: Accordingly, in this example, by utilizing the property of the compound, a fusion test was performed for liposomes in which (in the inner aqueous phase) calcein has been contained at a high concentration in advance.
The SUV was prepared according to the method described in Example 6. However, the calcein (75 mM) was added to a phosphate buffer (5 mM NaH2PO4/Na2HPO4, 0.15 M NaCl, pH 8), and ultrasonic wave treatment was performed to produce SUVs. The SUVs were separated by gel filter (Sephadex G-50, using the same phosphate buffer solution in the mobile phase) to remove the calcein present in the outside aqueous phase, giving a SUV dispersion.
CDMT (50 equivalents) was added to the obtained SUV dispersion, and allowed to stand at room temperature and the fluorescence (520 nm) was measured (FS) after a given time, and immediately after Triton X-100 (10%, 200 μL) was added to destroy the SUV, and then the fluorescence was measured again (FT). […] The rate of leakage was calculated by the following equation.
[formula] • F0: Fluorescence intensity at 0 hours • FS: Fluorescence intensity at each hour • FT: Fluorescence intensity after adding Triton X-100

[3] = Observation of SUV by transmission electron microscope; conditions: SUV with sodium laurate and C16-tertiary amine
Method: A SUV dispersion of the composition shown in Table 8 was prepared in accordance with the SUV preparation method described in Example 6.
To 200 μL of the prepared SUV dispersion, 4.3 μL of CDMT (300 mM in methanol) was added, and allowed to stand at room temperature. As a control experiment, 4.3 μL of methanol was added instead of CDMT, and allowed to stand at room temperature. Several drops of the SUV dispersion after standing were placed on a carrier, frozen with liquid nitrogen, and prepared specimens for electron microscopy (replicas) by a freeze fracturing method ordinarily performed by those skilled in the art (JEOL JFD-9010 was used). The specimens obtained were observed by TEM (JEOL JEM-1010) (acceleration voltage 100 kv). The arrows in the micrographs indicate the SUV.

[4] = Change in particle size accompanying MLV fusion (DLS); conditions: MLV with C8-tertiary amine 0.2 equivalent, CDMT 50 equivalents
Method: The MLV dispersion prepared was separated into 2 mL portions, and 50 equivalents (21.7 μL) CDMT (300 mM in methanol) was added thereto. For the control, 21.7 μL of methanol was added. Two samples were prepared and the particle size after 12 hours was measured by dynamic light scattering (DLS).

[5] = Membrane fusion experiment using MLV, change in fluorescence (F value, NBD-PE to Rh-PE energy transfer); conditions: for membrane fusion of MLV (in words): from F value over time
Text: Examples of means for evaluating and observing a phase transition such as fusion of the membranes include observation by electron microscope, quantification of the produced pseudo-ceramide (for example, by mass spectrometry), and measurement of the change in fluorescence. In the case of measuring changes in fluorescence, a compound which causes a fluorescence energy transfer to another compound that present in the vicinity of the compound is introduced as a component of the bilayer membrane. Examples of such compounds include the combination of 1,2-dimyristyl-sn-glycero-3-phosphoethanolamine-N-(7-nitro-2-1,3-benzoxadiazol-4-yl) (NBD-PE) and 1,2-dimyristyl-sn-glycero-3-phosphoethanolamine-N-(lissamine rhodamine B sulfonyl) (Rh-PE). The former is the energy donor, and the latter is the energy acceptor. […] As for evaluating changes in the fluorescence, it is possible to use the fluorescence change F that is obtained by:
For example, when NBD-PE and Rh-PE are included in separate vesicles, the F value increases by fusion of the vesicles. To the contrary, when a vesicle including both NBD-PE and Rh-PE fuses with a vesicle including neither, the distance between the NBD-PE and Rh-PE increases so that the F value decreases.
First, 1 mL each of the MLV dispersions that contain a tertiary amine (C8 or C16) obtained in Example 1 were mixed at room temperature. A solution of 2-chloro-4,6-dimethoxy-1,3,5-triazin (CDMT) (150 mM or 300 mM) in methanol (21.7 μL) was added thereto, and allowed to stand at room temperature. Next, to the MLV dispersion obtained in Example 2, a solution of 4-(4,6-dimethoxy-1,3,5-triazin-2-yl)-4-methylmorpholium chloride (DMT-MM) (225 mM or 300 mM) in methanol (21.7 μL), which is a water-soluble dehydrating condensing agent, was added to prepare a mixture. As a control experiment, a mixture to which 21.7 μL of methanol was added instead of the CDMT solution was prepared.
The change in fluorescence over time of the prepared mixtures was measured with a fluorometer. The excitation wavelength was 470 nm. As mentioned above, the F value was used as the criterion for the change in fluorescence.

[6] = Fusion experiment between active SUV and inactive SUV (fluorescence dilution); conditions: CDMT 35 equivalents; runs 2 and 3, one SUV inactive
Method: In accordance with the fluorescence dilution method described in Example 8, 0.2 mL of the prepared SUV dispersion with a fluorescent agent and 1.8 mL of the SUV dispersion without a fluorescent agent were mixed at room temperature. […] Then, 15.2 μL (4.55 μmol: 35 equivalents of the total fatty acid salt of run 1) of CDMT (300 mM in methanol) was added thereto, allowed to stand at room temperature, and the change in the F values over time was measured with a fluorometer.

[7] = Change in particle size accompanying SUV fusion (DLS); conditions: for Z average (average diameter): CDMT 50 equivalents; for number of SUVs fused, from change in particle size: about 3 hours
Method: SUV dispersions with the compositions shown in Table 6 were prepared in accordance with the SUV preparation method described in Example 6.
The prepared SUV dispersions were filtered through a 0.45-μm pore size filter and each was divided into two 2 mL samples, one of which was supplied with 21.7 μL (50 equivalents) of CDMT (300 mM in methanol) and the other supplied with 21.7 μL of methanol as a control experiment, and allowed to stand at room temperature. The particle size after three hours was measured by DLS.

[8] = Membrane fusion experiment using SUV (F value); conditions: SUV with C16-tertiary amine
Method: Sodium laurate (45.0 mM in methanol, 5.8 μL), the dihydric alcohol 1B (38.5 mM in chloroform, 6.8 μL), C16-tertiary amine (3.05 mM in chloroform, 17.0 μL), nonreduced egg yolk lecithin (13.0 mM in chloroform, 19.0 μL), and a fluorescent agent (for NBD-PE: 1.23 mM in chloroform, 10.6 μL; for Rh-PE: 4.19 mM in chloroform, 3.1 μL) were placed into a 20-mL eggplant-shaped flask, and the solvent was evaporated under reduced pressure using a rotary evaporator. The thin film formed on the inner well of the flask was further dried under reduced pressure using a vacuum pump (room temperature, 0.5 hours). Then, 4 mL of phosphate buffer (5 mM NaH2PO4/Na2HPO4, 0.15 M NaCl, pH 8.5) was added thereto, and ultrasonic waves were applied for 30 seconds using a bath-type ultrasonic wave generation device. Next, the mixture was stirred and shaken for 10 minutes with a vortex mixer at 100% strength. […]
Using the SUV dispersion containing NBD-PE and Rh-PE obtained in Example 6, the change in fluorescence over time was measured in the same way as in the membrane fusion experiment with MLV of Example 3. The F value was calculated from the intensity of the fluorescence peaks to evaluate SUV fusion.

[9] = Solubility in the phosphate buffer used in the examples; format: physicochemical; conditions: aqueous buffer, buffer 5 mM NaH2PO4, 0.15 M NaCl, pH 7.5, read-out: solubility against the buffer
Method: The solubility of the dihydric alcohol 1A against the buffer (5 mM NaH2PO4, 0.15 M NaCl, pH 7.5) used in the examples was about 10 mM.
The solubility of the dihydric alcohol 1B against the buffer (5 mM NaH2PO4, 0.15 M NaCl, pH 7.5) used in the examples was about 0.2 mM.

In the case of `COc1nc(Cl)nc(OC)n1` [CDMT, 2-chloro-4,6-dimethoxy-1,3,5-triazin], the “change in fluorescence, fluorescence dilution method (FIG. 5, in words)” value [1] is reported as “a decrease in the fluorescence was found”, the Rate of leakage ([2]; 1 hr) is reported as 6.5% and the Rate of leakage ([2]; 2 hr) is reported as 7.1%. For the same compound, the Rate of leakage ([2]; 3 hr) was 8% and 8.3%, the “particle size by TEM after CDMT addition” value [3] was “greater than 1 μm” and the “Z average (average diameter)” value ([4]; 0 hr) was 235.2 nm and 232.4 nm. For the same compound, the “Z average (average diameter)” value ([4]; 12 hr) was 280.3 nm and 278.2 nm, the “Change in fluorescence (F value)” value ([5]; CDMT 25 equivalents, C16 tertiary amine in MLV, 2 hr) was 1.64 and the “Change in fluorescence (F value)” value ([5]; CDMT 25 equivalents, C16 tertiary amine in MLV, 5 hr) was 8.10. For the same compound, the “Change in fluorescence (F value)” value ([5]; CDMT 50 equivalents, C8 tertiary amine in MLV, 5 hr) was 2.22, the “Change in fluorescence (F value)” value ([5]; CDMT 50 equivalents, C8 tertiary amine in MLV, 12 hr) was 5.40 and the “Change in fluorescence (F value)” value ([5]; CDMT 50 equivalents, C16 tertiary amine in MLV, 2 hr) was 4.41. For the same compound, the “Change in fluorescence (F value)” value ([5]; CDMT 50 equivalents, C16 tertiary amine in MLV, 5 hr) was 10.4, the “membrane fusion of MLV (in words)” value [5] was “membrane fusion occurs” and the “change in F value, active/inactive SUV combinations (FIG. 9, in words)” value [6] was “the F value significantly changes”. For the same compound, the “Z average (average diameter)” value ([7]; SUV with lauric acid, 0 hr) was 92.7 nm, the “Z average (average diameter)” value ([7]; SUV with lauric acid, 3 hr) was 218.7 nm and the “Z average (average diameter)” value ([7]; SUV with oleic acid, 0 hr) was 66.1 nm. For the same compound, the “Z average (average diameter)” value ([7]; SUV with oleic acid, 3 hr) was 213.8 nm, the “number of SUVs fused, from change in particle size” value ([7]; laurate SUV) was 10 to 20 and the “number of SUVs fused, from change in particle size” value ([7]; oleate SUV) was 30 to 40. The “SUV membrane fusion (F value, FIG. 4, in words)” value [8] was “membrane fusion occurred”.

With `COc1nc(OC)nc([N+]2(C)CCOCC2)n1.[Cl-]` [DMT-MM, 4-(4,6-dimethoxy-1,3,5-triazin-2-yl)-4-methylmorpholium chloride] the “Change in fluorescence (F value)” value ([5]; DMT-MM 38 equivalents, MLV without tertiary amine, 36 hr) was 1.42, the “Change in fluorescence (F value)” value ([5]; DMT-MM 50 equivalents, MLV without tertiary amine, 36 hr) was 1.64 and the “membrane fusion of MLV (in words)” value [5] was “membrane fusion occurred extremely slowly”.

`CCCCCCCCNCC(O)CO` (stereo not drawn) [dihydric alcohol 1A, 3-octylamino-1,2-propanediol] showed a solubility [9] of roughly 10 mM (≈ 2030 µg/mL).

Compound `CCCCCCCCCCCCNCC(O)CO` (stereo not drawn) [dihydric alcohol 1B, 3-dodecylamino-1,2-propanediol] has a solubility [9] of roughly 0.2 mM (≈ 51.9 µg/mL).
